Test results: publication PMC9090415, “Discovery of small molecule inhibitors of Plasmodium falciparum apicoplast DNA polymerase” (Journal of Enzyme Inhibition and Medicinal Chemistry, 2022)

Biological target: P. falciparum apicoplast DNA polymerase (Pf-apPOL) (Plasmodium falciparum, UniProt Q8ILY1)
Experiment: Fluorescence-based high-throughput DNA polymerase assay (molecular beacon), primary screen and dose-response
Assay type: biochemical
Protocol: The HT assay employs a molecular beacon, a stem-loop DNA template with a Cy3 dye and the Black Hole Quencher on the 3′ and 5′ ends of the DNA, respectively. Pf-apPOL concentration is based on a calculated absorptivity of ε280 = 56750 M^−1 cm^−1. Reactions were carried out at 25 °C, using Corning 3575 […] (well-volume, 20 µL). Assays testing for compound inhibition composed of reaction buffer (pH 7.9 in 50 mM potassium acetate, 20 mM Tris-acetate and 10 mM magnesium acetate), Pf-apPOL (20 nM), DNA substrate (20 nM), dNTPs (6 µM), and compound (10 µM in DMSO). The DNA and nucleotide substrates (dNTPs) were at concentrations of 20 nM and 6 µM, respectively, in the assay. Pf-apPOL was incubated in the reaction buffer with dNTPs and the compound of interest (10 µM, in the assay) at 25 °C for 10 min. The DNA substrate was then added and the reaction was allowed to proceed for 90 min at 25 °C.
Each assay plate contained 16 negative controls (no Pf-apPOL, DMSO present) and 16 positive controls (Pf-apPOL present, no DMSO). The fluorescence of each well was determined using a BioTek Synergy Neo fluorescence plate reader using excitation and emission wavelengths of 555 and 570 nm, respectively.
In the above, Min is the average of fluorescence emission of the negative controls (substrate only), Max the average fluorescence emission from the positive controls (enzyme + substrate), and Test the emission from the assays in the presence of compounds (enzyme + compound + substrates). […] […] The IC50 of each compound was determined using Equation (2): (2) IC50= Vmax/(1+ (I/IC50)^n)
In the above, n measures cooperativity, with n > 1 indicating synergistic binding of more than a single molecule of the compound.
To identify apPOL inhibitors we utilised our previously developed high-throughput DNA polymerase assay. The HT assay is based on a molecular beacon DNA template that forms a stem-loop with a Cy3 dye and the Black Hole Quencher on the 3′ and 5′ ends of the DNA, respectively. DNA polymerase activity extends an annealed primer through the stem region, displacing the fluorophore from the quencher, thereby increasing its fluorescence (Figure 1(A)). The assay accurately recapitulates the kinetic behaviour of apPOL, as measured through more conventional low-throughput gel-based assays. The Z′ factor for the assay described here was 0.9 across all plates (data not shown).
Figure 1. High-throughput screening. (A) The fluorescent-based DNA polymerase assay used to screen the compound libraries. The DNA template strand is a hairpin loop with a primer annealed to the loop. The 3’ end of the primer is 11 bases away from the 6 bp duplex. Strand displacement activity of the DNA polymerase separates the Cy3 dye from the Black hole quencher leading to an increase in fluorescent signal. (B) The high-throughput assay workflow. The DNA polymerase is incubated with […] compound for 10 min prior to addition of the hairpin substrate. The reaction is quenched at 3 different time points and the fluorescent signal is measured and % inhibition is determined using the provided equation.

[1] = 186 hits, value of the hit list (primary screen); unit not given; 90 min, 10 µM
[2] = primary screen value, 'DNA Pol' only; 90 min, 10 µM

Chain of P. falciparum apicoplast DNA polymerase (Pf-apPOL) (Q8ILY1 entry or part of it): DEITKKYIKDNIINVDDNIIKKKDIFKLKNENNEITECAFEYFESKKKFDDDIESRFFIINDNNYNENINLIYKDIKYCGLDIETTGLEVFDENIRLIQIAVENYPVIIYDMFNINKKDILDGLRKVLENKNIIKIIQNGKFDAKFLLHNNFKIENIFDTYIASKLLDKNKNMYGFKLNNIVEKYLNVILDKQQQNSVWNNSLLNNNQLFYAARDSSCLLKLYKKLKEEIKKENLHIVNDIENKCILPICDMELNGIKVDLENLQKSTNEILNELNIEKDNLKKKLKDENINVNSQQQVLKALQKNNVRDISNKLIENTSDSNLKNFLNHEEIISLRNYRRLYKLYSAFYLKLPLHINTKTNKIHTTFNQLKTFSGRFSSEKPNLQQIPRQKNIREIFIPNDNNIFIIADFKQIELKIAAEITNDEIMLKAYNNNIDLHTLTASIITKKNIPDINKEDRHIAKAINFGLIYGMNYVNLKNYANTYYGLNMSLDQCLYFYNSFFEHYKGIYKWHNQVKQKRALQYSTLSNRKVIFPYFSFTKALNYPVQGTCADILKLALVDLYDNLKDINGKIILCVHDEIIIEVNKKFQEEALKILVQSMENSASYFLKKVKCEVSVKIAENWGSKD

CS(=O)(=O)c1cccc(C(=O)Nc2nnc(-c3ccno3)o2)c1 [KU0171319]
DNA Pol [1]: 45
% inhibition Apo pol 10' (DRC-1; 10'; concentration 2.5): 6.657%
% inhibition Apo pol 10' (DRC-1; 10'; concentration 5): 14.8177%
% inhibition Apo pol 10' (DRC-1; 10'; concentration 10): 36.7259%
% inhibition Apo pol 10' (DRC-1; 10'; concentration 20): 44.3674%
% inhibition Apo pol 10' (DRC-1; 10'; concentration 40): 60.0862%
% inhibition Apo pol 10' (DRC-1; 10'; concentration 80): 69.7787%
% inhibition Apol 90' (DRC-1; 90'; concentration 2.5): -3.363%
% inhibition Apol 90' (DRC-1; 90'; concentration 5): 1.476%
% inhibition Apol 90' (DRC-1; 90'; concentration 10): 14.1125%
% inhibition Apol 90' (DRC-1; 90'; concentration 20): 18.6112%
% inhibition Apol 90' (DRC-1; 90'; concentration 40): 31.6807%
% inhibition Apol 90' (DRC-1; 90'; concentration 80): 46.8389%
% inhibition apPOL 180' (DRC-1; 180'; concentration 2.5): -9.274%
% inhibition apPOL 180' (DRC-1; 180'; concentration 5): -6.316%
% inhibition apPOL 180' (DRC-1; 180'; concentration 10): 0.8537%
% inhibition apPOL 180' (DRC-1; 180'; concentration 20): 2.328%
% inhibition apPOL 180' (DRC-1; 180'; concentration 40): 13.3473%
% inhibition apPOL 180' (DRC-1; 180'; concentration 80): 27.8767%
% inhibition Apo pol 5' (DRC-2, 5', concentration 2.5): 8%
% inhibition Apo pol 5' (DRC-2, 5', concentration 5): 13%
% inhibition Apo pol 5' (DRC-2, 5', concentration 10): 24%
% inhibition Apo pol 5' (DRC-2, 5', concentration 20): 29%
% inhibition Apo pol 5' (DRC-2, 5', concentration 40): 32%
% inhibition Apo pol 5' (DRC-2, 5', concentration 80): 22%
% inhibition Apol 40' (DRC-2, 40', concentration 2.5): 1.54%
% inhibition Apol 40' (DRC-2, 40', concentration 5): 4.6%
% inhibition Apol 40' (DRC-2, 40', concentration 10): 13%
% inhibition Apol 40' (DRC-2, 40', concentration 20): 17%
% inhibition Apol 40' (DRC-2, 40', concentration 40): 28%
% inhibition Apol 40' (DRC-2, 40', concentration 80): 35%
% inhibition ApPOL 90' (DRC-2, 90', concentration 2.5): -0.356%
% inhibition ApPOL 90' (DRC-2, 90', concentration 5): 0.372%
% inhibition ApPOL 90' (DRC-2, 90', concentration 10): 8%
% inhibition ApPOL 90' (DRC-2, 90', concentration 20): 11%
% inhibition ApPOL 90' (DRC-2, 90', concentration 40): 21%
% inhibition ApPOL 90' (DRC-2, 90', concentration 80): 34%
% inhibition apPOL 180' (DRC-2, 180', concentration 2.5): -5.4%
% inhibition apPOL 180' (DRC-2, 180', concentration 5): -8%
% inhibition apPOL 180' (DRC-2, 180', concentration 10): -3%
% inhibition apPOL 180' (DRC-2, 180', concentration 20): -2.43%
% inhibition apPOL 180' (DRC-2, 180', concentration 40): 7.43%
% inhibition apPOL 180' (DRC-2, 180', concentration 80): 26%
% inhibition Apo pol 5' (DRC-2; 5'; concentration 2.5): 8%
% inhibition Apo pol 5' (DRC-2; 5'; concentration 5): 13%
% inhibition Apol 40' (DRC-2; 40'; concentration 10): 13%
% inhibition ApPOL 90' (DRC-2; 90'; concentration 10): 8%
DNA Pol [2]: 45

O=C(Nc1nnc(-c2ccno2)o1)c1ccc2c(c1)OCO2 [KU0171343]
DNA Pol [1]: 40
% inhibition Apo pol 10' (DRC-1; 10'; concentration 2.5): 0.3504%
% inhibition Apo pol 10' (DRC-1; 10'; concentration 5): 4.323%
% inhibition Apo pol 10' (DRC-1; 10'; concentration 10): 19.3402%
% inhibition Apo pol 10' (DRC-1; 10'; concentration 20): 32.3938%
% inhibition Apo pol 10' (DRC-1; 10'; concentration 40): 61.4938%
% inhibition Apo pol 10' (DRC-1; 10'; concentration 80): 79.918%
% inhibition Apol 90' (DRC-1; 90'; concentration 2.5): -7.247%
% inhibition Apol 90' (DRC-1; 90'; concentration 5): -7.662%
% inhibition Apol 90' (DRC-1; 90'; concentration 10): 0.8301%
% inhibition Apol 90' (DRC-1; 90'; concentration 20): 8.774%
% inhibition Apol 90' (DRC-1; 90'; concentration 40): 33.5392%
% inhibition Apol 90' (DRC-1; 90'; concentration 80): 60.7945%
% inhibition apPOL 180' (DRC-1; 180'; concentration 2.5): -15.466%
% inhibition apPOL 180' (DRC-1; 180'; concentration 5): -16.6627%
% inhibition apPOL 180' (DRC-1; 180'; concentration 10): -10.0119%
% inhibition apPOL 180' (DRC-1; 180'; concentration 20): -7.297%
% inhibition apPOL 180' (DRC-1; 180'; concentration 40): 11.9639%
% inhibition apPOL 180' (DRC-1; 180'; concentration 80): 37.6873%
% inhibition Apo pol 5' (DRC-2, 5', concentration 2.5): 4.65%
% inhibition Apo pol 5' (DRC-2, 5', concentration 5): 2.76%
% inhibition Apo pol 5' (DRC-2, 5', concentration 10): 18%
% inhibition Apo pol 5' (DRC-2, 5', concentration 20): 19%
% inhibition Apo pol 5' (DRC-2, 5', concentration 40): 33%
% inhibition Apo pol 5' (DRC-2, 5', concentration 80): 26%
% inhibition Apol 40' (DRC-2, 40', concentration 2.5): -1.21%
% inhibition Apol 40' (DRC-2, 40', concentration 5): -4.25%
% inhibition Apol 40' (DRC-2, 40', concentration 10): 14%
% inhibition Apol 40' (DRC-2, 40', concentration 20): 14%
% inhibition Apol 40' (DRC-2, 40', concentration 40): 39%
% inhibition Apol 40' (DRC-2, 40', concentration 80): 51%
% inhibition ApPOL 90' (DRC-2, 90', concentration 2.5): -3.2%
% inhibition ApPOL 90' (DRC-2, 90', concentration 5): -8%
% inhibition ApPOL 90' (DRC-2, 90', concentration 10): 11%
% inhibition ApPOL 90' (DRC-2, 90', concentration 20): 10%
% inhibition ApPOL 90' (DRC-2, 90', concentration 40): 36%
% inhibition ApPOL 90' (DRC-2, 90', concentration 80): 55%
% inhibition apPOL 180' (DRC-2, 180', concentration 2.5): -8%
% inhibition apPOL 180' (DRC-2, 180', concentration 5): -14%
% inhibition apPOL 180' (DRC-2, 180', concentration 10): 1.55%
% inhibition apPOL 180' (DRC-2, 180', concentration 20): 0.368%
% inhibition apPOL 180' (DRC-2, 180', concentration 40): 25%
% inhibition apPOL 180' (DRC-2, 180', concentration 80): 51%
% inhibition Apol 40' (DRC-2; 40'; concentration 10): 14%
% inhibition Apol 40' (DRC-2; 40'; concentration 20): 14%
% inhibition Apol 40' (DRC-2; 40'; concentration 80): 51%
% inhibition ApPOL 90' (DRC-2; 90'; concentration 5): -8%
% inhibition apPOL 180' (DRC-2; 180'; concentration 2.5): -8%
% inhibition apPOL 180' (DRC-2; 180'; concentration 80): 51%
DNA Pol [2]: 40
